{
  "source": "paper PMC6646235",
  "about": "“Structure and ligand binding of As-p18, an extracellular fatty acid binding protein from the eggs of a parasitic nematode” (Bioscience Reports, 2019)",
  "key": {"As-p18 [1]": {"biological_target": "T1, As-p18 (Ascaris suum, UniProt P55776)", "T1 construct": "mature protein without secretion signal peptide, N-terminal His-tag (pQE-30/As-p18), expressed in E. coli BL21 (DE3); monomer; delipidated by RP-HPLC for NMR, co-purified lipid retained for crystal", "T1 sequence (P55776 21-163)": "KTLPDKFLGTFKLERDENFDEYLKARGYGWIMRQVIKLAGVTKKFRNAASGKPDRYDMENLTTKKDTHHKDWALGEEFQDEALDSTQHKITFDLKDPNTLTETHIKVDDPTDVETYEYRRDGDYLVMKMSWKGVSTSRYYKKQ", "assay": "X-ray crystallography at […] Å; GC-MS of co-purified lipid", "assay_type": "binding", "conditions": "co-purified from E. coli; pH 4.5 crystal; ligand density incomplete, vaccenate modelled"}, "As-p18 [2]": {"biological_target": "T1, As-p18", "assay": "isothermal titration calorimetry; complex also solved by solution NMR", "assay_type": "binding"}},
  "data": [
    {"smiles": "CCCCCC/C=C\\CCCCCCCCCC(=O)O", "note": "[vaccenate, cis-11-octadecenoate]", "values": [
      {"measurement": "X-ray crystallography at 2.3 Å; GC-MS of co-purified lipid", "setting": "As-p18 [1]", "value": "The two X-ray structures of As-p18 in complex with vaccenate"}
    ]},
    {"smiles": "CCCCCCCC/C=C\\CCCCCCCC(=O)O", "note": "[oleic acid]", "values": [
      {"measurement": "Kd", "setting": "As-p18 [2]", "value": 3.1, "unit": "µM"}
    ]}
  ]
}
